# Publication PMC4917279 (Journal of Medicinal Chemistry, 2016)
# Entries after “also recorded” stand apart in the source; their conditions may differ.
# Legend:
# [1] = Caco2 drug permeability assay; format: in vitro ADME; settings: human, Caco-2, pH 7.2
# Description: Caco-2 cells (purchased from DSMZ Braunschweig, Germany) were seeded at a density of 4.5 × 10^4 cell per well on 24-well insert plates, 0.4 μm pore size, and grown for 15 days in DMEM medium supplemented with 10% fetal bovine serum, 1% GlutaMAX (100×, GIBCO), 100 μg/mL penicillin, 100 μg/mL streptomycin (GIBCO), and 1% nonessential amino acids (100×). Cells were maintained at 37 °C in a humified 5% CO2 atmosphere. Medium was changed every second to third day. Before running the permeation assay, the culture medium was replaced by an FCS-free Hepes-carbonate transport buffer (pH 7.2). For assessment of monolayer integrity, the transepithelial electrical resistance (TEER) was measured. Test compounds were dissolved in DMSO and added either to the apical or basolateral compartment in a final concentration of 2 μM. Before and after incubation at 37 °C, samples were taken from both compartments. Analysis of compound content was performed following precipitation with methanol and LC/MS/MS analysis. Permeability (Papp) was calculated in the apical to basolateral (A → B) and basolateral to apical (B → A) directions. The apparent permeability was calculated using following equation: [drawing 3] where Vr = volume of medium in the receiver chamber, P0 = measured peak area of the test drug in the donor chamber at t = 0, S = surface area of the monolayer, P2 = measured peak area of the test drug in the acceptor chamber after incubation for 2 h, and t = incubation time. The efflux ratio basolateral (B) to apical (A) was calculated by dividing Papp (B–A) by Papp (A–B). In addition, the compound recovery was calculated. Reference compounds were analyzed in parallel as assay controls. All samples were analyzed by LC/MS/MS.
# [2] = tested on: KYSE-150, U2OS, and A2780 cell lines; test: Caspase 3/7 activation assay; format: cell-based
# Description: Effects on apoptosis induction were measured with the Caspase-Glo 3/7 Assay System (Promega).
# [3] = target: T1, ABL1(H396P)-phosphorylated (Homo sapiens, UniProt P00519, H396P); test: KINOMEscan; format: binding; settings: read-out: %Ctrl @ 1000 nM
# T1 construct: purchased DiscoveRx (KINOMEscan service)
# ADCK3 = target: T2, ADCK3 (Homo sapiens, UniProt Q8NI60); test: KINOMEscan; format: binding; settings: read-out: %Ctrl @ 1000 nM
# T2 construct: purchased DiscoveRx KINOMEscan
# AKT1 = target: T3, AKT1 (Homo sapiens, UniProt P31749); test: KINOMEscan; format: binding; settings: read-out: %Ctrl @ 1000 nM
# T3 construct: purchased DiscoveRx KINOMEscan
# AMPK-alpha1 = target: T4, AMPK-alpha1 (Homo sapiens, UniProt Q13131); test: KINOMEscan; format: binding; settings: read-out: %Ctrl @ 1000 nM
# T4 construct: purchased DiscoveRx KINOMEscan
# T4 sequence (Q13131 whole entry): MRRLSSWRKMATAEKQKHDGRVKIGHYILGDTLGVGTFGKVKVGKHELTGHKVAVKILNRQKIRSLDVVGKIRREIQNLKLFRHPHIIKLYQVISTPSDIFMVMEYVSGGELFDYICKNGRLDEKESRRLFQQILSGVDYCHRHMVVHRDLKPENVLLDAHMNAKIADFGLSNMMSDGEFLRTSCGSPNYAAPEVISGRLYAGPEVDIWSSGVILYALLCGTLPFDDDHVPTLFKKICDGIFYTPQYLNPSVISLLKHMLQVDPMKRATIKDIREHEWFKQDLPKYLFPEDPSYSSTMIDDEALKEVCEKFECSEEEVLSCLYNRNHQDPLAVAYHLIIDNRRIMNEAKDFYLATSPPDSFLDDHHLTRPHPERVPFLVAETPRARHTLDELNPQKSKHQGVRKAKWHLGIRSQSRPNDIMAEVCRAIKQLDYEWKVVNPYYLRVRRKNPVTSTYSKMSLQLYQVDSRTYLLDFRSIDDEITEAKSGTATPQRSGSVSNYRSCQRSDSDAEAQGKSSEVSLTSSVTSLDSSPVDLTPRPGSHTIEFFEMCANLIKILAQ
# CSF1R = target: T5, CSF1R (Homo sapiens, UniProt P07333); test: KINOMEscan; format: binding; settings: read-out: %Ctrl @ 1000 nM
# T5 construct: purchased DiscoveRx KINOMEscan
# DYRK1A = target: T6, DYRK1A (Homo sapiens, UniProt Q13627); test: KINOMEscan; format: binding; settings: read-out: %Ctrl @ 1000 nM
# T6 construct: purchased DiscoveRx KINOMEscan
# DYRK2 = target: T7, DYRK2 (Homo sapiens, UniProt Q92630); test: KINOMEscan; format: binding; settings: read-out: %Ctrl @ 1000 nM
# T7 construct: purchased DiscoveRx KINOMEscan
# EGFR(G719S) = target: T8, EGFR(G719S) (Homo sapiens, UniProt P00533, G719S); test: KINOMEscan; format: binding; settings: read-out: %Ctrl @ 1000 nM
# T8 construct: purchased DiscoveRx KINOMEscan
# EPHA7 = target: T9, EPHA7 (Homo sapiens, UniProt Q15375); test: KINOMEscan; format: binding; settings: read-out: %Ctrl @ 1000 nM
# T9 construct: purchased DiscoveRx KINOMEscan
# EPHB3 = target: T10, EPHB3 (Homo sapiens, UniProt P54753); test: KINOMEscan; format: binding; settings: read-out: %Ctrl @ 1000 nM
# T10 construct: purchased DiscoveRx KINOMEscan
# GCN2(Kin.Dom.2,S808G) = target: T11, GCN2(Kin.Dom.2,S808G) (Homo sapiens, UniProt Q9P2K8, S808G); test: KINOMEscan; format: binding; settings: read-out: %Ctrl @ 1000 nM
# T11 construct: GCN2(Kin.Dom.2,S808G); purchased DiscoveRx KINOMEscan
# IKK-alpha = target: T12, IKK-alpha (Homo sapiens, UniProt O15111); test: KINOMEscan; format: binding; settings: read-out: %Ctrl @ 1000 nM
# T12 construct: purchased DiscoveRx KINOMEscan
# JNK2 = target: T13, JNK2 (Homo sapiens, UniProt P45984); test: KINOMEscan; format: binding; settings: read-out: %Ctrl @ 1000 nM
# T13 construct: purchased DiscoveRx KINOMEscan
# T13 sequence (P45984 whole entry): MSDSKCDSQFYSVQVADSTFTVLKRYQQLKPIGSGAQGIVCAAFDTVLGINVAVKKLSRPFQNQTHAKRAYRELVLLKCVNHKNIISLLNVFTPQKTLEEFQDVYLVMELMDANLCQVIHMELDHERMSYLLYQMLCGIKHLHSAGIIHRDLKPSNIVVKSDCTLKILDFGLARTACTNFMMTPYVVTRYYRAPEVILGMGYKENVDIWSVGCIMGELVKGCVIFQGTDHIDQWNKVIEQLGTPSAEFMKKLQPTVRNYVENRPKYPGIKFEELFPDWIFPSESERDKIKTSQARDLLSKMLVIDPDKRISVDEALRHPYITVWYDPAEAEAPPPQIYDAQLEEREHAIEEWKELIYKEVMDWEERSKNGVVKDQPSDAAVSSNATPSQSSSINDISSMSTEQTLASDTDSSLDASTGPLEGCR
# LRRK2 = target: T14, LRRK2 (Homo sapiens, UniProt Q5S007); test: KINOMEscan; format: binding; settings: read-out: %Ctrl @ 1000 nM
# T14 construct: purchased DiscoveRx KINOMEscan
# MAP3K3 = target: T15, MAP3K3 (Homo sapiens, UniProt Q99759); test: KINOMEscan; format: binding; settings: read-out: %Ctrl @ 1000 nM
# T15 construct: purchased DiscoveRx KINOMEscan
# MAPKAPK2 = target: T16, MAPKAPK2 (Homo sapiens, UniProt P49137); test: KINOMEscan; format: binding; settings: read-out: %Ctrl @ 1000 nM
# T16 construct: purchased DiscoveRx KINOMEscan
# MLCK = target: T17, MLCK (Homo sapiens, UniProt Q32MK0); test: KINOMEscan; format: binding; settings: read-out: %Ctrl @ 1000 nM
# T17 construct: purchased DiscoveRx KINOMEscan
# T17 sequence (Q32MK0 whole entry): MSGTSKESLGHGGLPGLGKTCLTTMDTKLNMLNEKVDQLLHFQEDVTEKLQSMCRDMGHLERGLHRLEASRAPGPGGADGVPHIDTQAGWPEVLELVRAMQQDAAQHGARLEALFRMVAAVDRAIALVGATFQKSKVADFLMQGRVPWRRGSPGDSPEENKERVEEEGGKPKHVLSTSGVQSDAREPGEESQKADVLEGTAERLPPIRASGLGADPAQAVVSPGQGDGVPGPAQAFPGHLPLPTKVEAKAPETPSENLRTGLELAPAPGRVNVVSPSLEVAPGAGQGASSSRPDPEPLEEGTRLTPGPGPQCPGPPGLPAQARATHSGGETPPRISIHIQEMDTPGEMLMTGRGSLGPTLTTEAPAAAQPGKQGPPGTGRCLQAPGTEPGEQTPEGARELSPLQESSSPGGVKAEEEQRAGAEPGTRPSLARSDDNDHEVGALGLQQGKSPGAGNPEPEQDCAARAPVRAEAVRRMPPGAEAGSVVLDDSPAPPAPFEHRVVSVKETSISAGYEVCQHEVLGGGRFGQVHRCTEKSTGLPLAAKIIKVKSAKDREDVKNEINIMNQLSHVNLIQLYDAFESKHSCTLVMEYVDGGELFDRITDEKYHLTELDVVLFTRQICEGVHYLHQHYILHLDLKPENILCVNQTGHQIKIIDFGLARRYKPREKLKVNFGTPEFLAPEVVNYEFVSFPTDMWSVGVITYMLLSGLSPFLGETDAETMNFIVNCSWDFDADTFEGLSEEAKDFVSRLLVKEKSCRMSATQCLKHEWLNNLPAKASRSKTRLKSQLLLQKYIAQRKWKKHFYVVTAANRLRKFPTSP
# MST3 = target: T18, MST3 (Homo sapiens, UniProt Q9Y6E0); test: KINOMEscan; format: binding; settings: read-out: %Ctrl @ 1000 nM
# T18 construct: purchased DiscoveRx KINOMEscan
# NEK4 = target: T19, NEK4 (Homo sapiens, UniProt P51957); test: KINOMEscan; format: binding; settings: read-out: %Ctrl @ 1000 nM
# T19 construct: purchased DiscoveRx KINOMEscan
# PIK3CA(C420R) = target: T20, PIK3CA(C420R) (Homo sapiens, UniProt P42336, C420R); test: KINOMEscan; format: binding; settings: read-out: %Ctrl @ 1000 nM
# T20 construct: purchased DiscoveRx KINOMEscan
# PIK3CG = target: T21, PIK3CG (Homo sapiens, UniProt P48736); test: KINOMEscan; format: binding; settings: read-out: %Ctrl @ 1000 nM
# T21 construct: purchased DiscoveRx KINOMEscan
# PIP5K2B = target: T22, PIP5K2B (Homo sapiens, UniProt P78356); test: KINOMEscan; format: binding; settings: read-out: %Ctrl @ 1000 nM
# T22 construct: purchased DiscoveRx KINOMEscan
# RIPK4 = target: T23, RIPK4 (Homo sapiens, UniProt P57078); test: KINOMEscan; format: binding; settings: read-out: %Ctrl @ 1000 nM
# T23 construct: purchased DiscoveRx KINOMEscan
# RIPK5 = target: T24, RIPK5 (Homo sapiens, UniProt Q6XUX3); test: KINOMEscan; format: binding; settings: read-out: %Ctrl @ 1000 nM
# T24 construct: purchased DiscoveRx KINOMEscan
# ROCK1 = target: T25, ROCK1 (Homo sapiens, UniProt Q13464); test: KINOMEscan; format: binding; settings: read-out: %Ctrl @ 1000 nM
# T25 construct: purchased DiscoveRx KINOMEscan
# T25 sequence (Q13464 whole entry): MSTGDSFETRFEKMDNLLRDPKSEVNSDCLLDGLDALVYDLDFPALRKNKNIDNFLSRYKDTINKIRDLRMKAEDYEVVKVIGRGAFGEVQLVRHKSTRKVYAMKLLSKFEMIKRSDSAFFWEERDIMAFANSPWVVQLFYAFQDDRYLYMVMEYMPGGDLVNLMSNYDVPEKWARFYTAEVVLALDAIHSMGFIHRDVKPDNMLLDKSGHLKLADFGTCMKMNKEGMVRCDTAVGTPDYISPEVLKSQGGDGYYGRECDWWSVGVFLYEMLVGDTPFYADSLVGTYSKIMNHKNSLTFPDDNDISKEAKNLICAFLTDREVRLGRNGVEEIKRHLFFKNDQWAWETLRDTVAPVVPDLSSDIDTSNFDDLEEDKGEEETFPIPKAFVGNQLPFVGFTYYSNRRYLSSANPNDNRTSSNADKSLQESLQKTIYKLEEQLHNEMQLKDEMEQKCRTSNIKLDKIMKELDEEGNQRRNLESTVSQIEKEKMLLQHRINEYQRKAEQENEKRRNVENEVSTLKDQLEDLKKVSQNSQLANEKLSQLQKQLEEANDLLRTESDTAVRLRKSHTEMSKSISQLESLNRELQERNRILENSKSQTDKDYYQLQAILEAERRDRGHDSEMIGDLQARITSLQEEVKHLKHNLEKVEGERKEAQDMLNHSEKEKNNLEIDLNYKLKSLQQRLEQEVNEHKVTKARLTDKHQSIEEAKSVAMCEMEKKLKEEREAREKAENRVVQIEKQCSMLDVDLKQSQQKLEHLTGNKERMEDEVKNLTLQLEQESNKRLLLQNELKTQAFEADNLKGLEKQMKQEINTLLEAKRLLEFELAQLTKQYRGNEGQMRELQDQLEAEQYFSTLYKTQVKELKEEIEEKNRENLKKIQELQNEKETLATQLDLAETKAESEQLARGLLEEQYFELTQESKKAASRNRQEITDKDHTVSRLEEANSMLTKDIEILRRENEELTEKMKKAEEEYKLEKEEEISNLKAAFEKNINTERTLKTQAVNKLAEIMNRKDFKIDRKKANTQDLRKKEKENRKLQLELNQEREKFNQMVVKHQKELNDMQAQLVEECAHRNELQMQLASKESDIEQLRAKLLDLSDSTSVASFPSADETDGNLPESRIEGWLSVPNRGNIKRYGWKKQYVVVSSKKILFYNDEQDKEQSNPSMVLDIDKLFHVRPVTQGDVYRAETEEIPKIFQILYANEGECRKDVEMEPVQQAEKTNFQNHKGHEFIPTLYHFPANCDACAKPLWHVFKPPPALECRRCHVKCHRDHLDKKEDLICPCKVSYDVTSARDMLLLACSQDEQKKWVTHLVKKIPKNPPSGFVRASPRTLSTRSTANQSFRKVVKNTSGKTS
# SIK2 = target: T26, SIK2 (Homo sapiens, UniProt Q9H0K1); test: KINOMEscan; format: binding; settings: read-out: %Ctrl @ 1000 nM
# T26 construct: purchased DiscoveRx KINOMEscan
# STK39 = target: T27, STK39 (Homo sapiens, UniProt Q9UEW8); test: KINOMEscan; format: binding; settings: read-out: %Ctrl @ 1000 nM
# T27 construct: purchased DiscoveRx KINOMEscan
# TLK1 = target: T28, TLK1 (Homo sapiens, UniProt Q9UKI8); test: KINOMEscan; format: binding; settings: read-out: %Ctrl @ 1000 nM
# T28 construct: purchased DiscoveRx KINOMEscan
# T28 sequence (Q9UKI8 whole entry): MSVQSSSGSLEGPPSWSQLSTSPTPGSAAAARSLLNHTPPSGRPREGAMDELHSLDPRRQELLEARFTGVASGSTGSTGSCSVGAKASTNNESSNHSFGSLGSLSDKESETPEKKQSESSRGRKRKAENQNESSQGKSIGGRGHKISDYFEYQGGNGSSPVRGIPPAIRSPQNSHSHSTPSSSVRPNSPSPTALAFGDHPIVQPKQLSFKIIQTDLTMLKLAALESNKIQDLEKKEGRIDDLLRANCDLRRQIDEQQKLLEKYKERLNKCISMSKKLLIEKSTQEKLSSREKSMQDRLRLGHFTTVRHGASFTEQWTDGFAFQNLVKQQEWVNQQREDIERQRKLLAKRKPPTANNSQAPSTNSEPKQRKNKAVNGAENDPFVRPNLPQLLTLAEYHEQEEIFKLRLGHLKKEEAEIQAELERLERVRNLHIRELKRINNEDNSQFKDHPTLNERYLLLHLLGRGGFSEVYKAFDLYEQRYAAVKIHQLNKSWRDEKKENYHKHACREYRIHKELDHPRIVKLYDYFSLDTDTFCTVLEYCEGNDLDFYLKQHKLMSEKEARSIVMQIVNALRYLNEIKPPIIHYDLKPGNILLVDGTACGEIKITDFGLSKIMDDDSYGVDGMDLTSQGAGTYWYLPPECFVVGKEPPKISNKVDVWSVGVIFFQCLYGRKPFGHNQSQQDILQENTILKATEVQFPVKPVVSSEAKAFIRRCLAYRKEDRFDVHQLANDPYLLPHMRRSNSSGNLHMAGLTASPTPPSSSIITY
# TNNI3K = target: T29, TNNI3K (Homo sapiens, UniProt Q59H18); test: KINOMEscan; format: binding; settings: read-out: %Ctrl @ 1000 nM
# T29 construct: purchased DiscoveRx KINOMEscan
# T29 sequence (Q59H18 whole entry): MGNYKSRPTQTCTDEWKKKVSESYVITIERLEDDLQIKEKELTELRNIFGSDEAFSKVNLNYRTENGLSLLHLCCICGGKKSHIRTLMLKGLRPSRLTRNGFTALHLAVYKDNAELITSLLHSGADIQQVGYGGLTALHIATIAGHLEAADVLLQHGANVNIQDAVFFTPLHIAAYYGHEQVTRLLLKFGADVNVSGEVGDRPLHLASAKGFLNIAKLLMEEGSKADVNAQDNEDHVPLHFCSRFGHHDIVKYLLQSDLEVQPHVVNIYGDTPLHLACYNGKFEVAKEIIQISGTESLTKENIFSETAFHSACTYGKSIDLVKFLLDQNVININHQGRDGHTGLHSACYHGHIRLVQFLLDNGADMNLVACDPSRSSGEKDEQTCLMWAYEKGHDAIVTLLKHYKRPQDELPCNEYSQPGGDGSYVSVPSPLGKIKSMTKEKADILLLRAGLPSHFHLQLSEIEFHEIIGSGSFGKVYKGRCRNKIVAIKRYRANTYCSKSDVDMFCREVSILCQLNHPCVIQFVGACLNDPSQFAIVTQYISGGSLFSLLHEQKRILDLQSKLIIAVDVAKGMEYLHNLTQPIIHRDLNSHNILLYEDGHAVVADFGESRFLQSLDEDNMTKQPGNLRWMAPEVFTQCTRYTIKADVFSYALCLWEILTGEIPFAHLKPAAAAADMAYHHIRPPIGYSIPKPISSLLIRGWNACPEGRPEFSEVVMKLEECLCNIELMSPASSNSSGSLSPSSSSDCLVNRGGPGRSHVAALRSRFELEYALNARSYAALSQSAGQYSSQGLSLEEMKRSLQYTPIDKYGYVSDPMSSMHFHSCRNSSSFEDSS
# ZAK = target: T30, ZAK (Homo sapiens, UniProt Q9NYL2); test: KINOMEscan; format: binding; settings: read-out: %Ctrl @ 1000 nM
# T30 construct: purchased DiscoveRx
structure (smiles),measurement,setting,value
CCN(C(=O)CO)[C@H]1CN(/C(=N\C#N)Nc2cccc(OC(F)F)c2)N=C1c1ccc(Cl)c(Cl)c1 [(S)-4],"Papp A→B at 2 h, 2 µM",[1],3.4 ×10⁻⁶ cm/s
same,Caspase 3/7 activation in combination with doxorubicin,"[2]; 2 days pretreatment, then doxorubicin 24 h, KYSE-150, U2OS, A2780",significantly improved; also recorded: significantly improving
same,Apoptosis induction alone,[2]; without doxorubicin,without inducing apoptosis alone
same,remaining binding at 1 µM,[3],88%
same,remaining binding at 1 µM,ADCK3,98%
same,remaining binding at 1 µM,AKT1,84%
same,remaining binding at 1 µM,AMPK-alpha1,68%
same,remaining binding at 1 µM,CSF1R,100%
same,remaining binding at 1 µM,DYRK1A,100%
same,remaining binding at 1 µM,DYRK2,100%
same,remaining binding at 1 µM,EGFR(G719S),78%
same,remaining binding at 1 µM,EPHA7,91%
same,remaining binding at 1 µM,EPHB3,99%
same,remaining binding at 1 µM,"GCN2(Kin.Dom.2,S808G)",100%
same,remaining binding at 1 µM,IKK-alpha,92%
same,remaining binding at 1 µM,JNK2,100%
same,remaining binding at 1 µM,LRRK2,100%
same,remaining binding at 1 µM,MAP3K3,73%
same,remaining binding at 1 µM,MAPKAPK2,91%
same,remaining binding at 1 µM,MLCK,100%
same,remaining binding at 1 µM,MST3,100%
same,remaining binding at 1 µM,NEK4,100%
same,remaining binding at 1 µM,PIK3CA(C420R),76%
same,remaining binding at 1 µM,PIK3CG,90%
same,remaining binding at 1 µM,PIP5K2B,100%
same,remaining binding at 1 µM,RIPK4,100%
same,remaining binding at 1 µM,RIPK5,90%
same,remaining binding at 1 µM,ROCK1,98%
same,remaining binding at 1 µM,SIK2,99%
same,remaining binding at 1 µM,STK39,77%
same,remaining binding at 1 µM,TLK1,100%
same,remaining binding at 1 µM,TNNI3K,73%
same,remaining binding at 1 µM,ZAK,95%
